Measurements taken from ChEMBL document CHEMBL1201862, “PubChem BioAssay data set” (2004).
Activity calls are given as the source filed them.

Tests used:
Beta-lactamase [1] = molecular target: Beta-lactamase (Pseudomonas aeruginosa, UniProt Q79MP6);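 also: biochemical dose-response test of metallo-beta-lactamase enzyme inhibition, read out by epi-absorbance; purified recombinant IMP-1 metallo-beta-lactamase with nitrocefin as substrate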
[2] = inhibitors of SNCA 5'UTR-driven reporter translation, confirmation, H4 neuroglioma cells, luminescence (AID 1988); assay type: functional, cell-based
Beta-lactamase [3] = molecular target: Beta-lactamase (Salmonella choleraesuis (strain SC-B67), UniProt Q5J463)
Chain of Beta-lactamase (Salmonella choleraesuis (strain SC-B67), UniProt Q5J463) (Q5J463 whole entry): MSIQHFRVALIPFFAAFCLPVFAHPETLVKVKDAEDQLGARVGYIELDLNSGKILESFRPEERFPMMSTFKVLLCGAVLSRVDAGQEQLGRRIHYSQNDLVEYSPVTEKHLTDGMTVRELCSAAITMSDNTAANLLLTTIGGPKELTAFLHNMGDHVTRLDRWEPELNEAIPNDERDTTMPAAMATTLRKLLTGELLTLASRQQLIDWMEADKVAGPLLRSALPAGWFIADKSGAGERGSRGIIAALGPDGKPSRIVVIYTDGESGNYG

[4] = Luminescence Cell-Based Dose Response HTS to Identify Inhibitors of 5'UTR Stem-Loop Driven Prion Protein mRNA Translation in H4 Neuroglioblastoma Cells. [Related pubchem assays: 1827 (Project Summary), 1813 (Primary HTS)]; assay type: functional
[5] = molecular target: T1, Peroxisome proliferator-activated receptor gamma/Nuclear receptor corepressor 2 (Homo sapiens, UniProt P37231+Q9Y618); assay type: functional
T1 sequence (P37231 whole entry): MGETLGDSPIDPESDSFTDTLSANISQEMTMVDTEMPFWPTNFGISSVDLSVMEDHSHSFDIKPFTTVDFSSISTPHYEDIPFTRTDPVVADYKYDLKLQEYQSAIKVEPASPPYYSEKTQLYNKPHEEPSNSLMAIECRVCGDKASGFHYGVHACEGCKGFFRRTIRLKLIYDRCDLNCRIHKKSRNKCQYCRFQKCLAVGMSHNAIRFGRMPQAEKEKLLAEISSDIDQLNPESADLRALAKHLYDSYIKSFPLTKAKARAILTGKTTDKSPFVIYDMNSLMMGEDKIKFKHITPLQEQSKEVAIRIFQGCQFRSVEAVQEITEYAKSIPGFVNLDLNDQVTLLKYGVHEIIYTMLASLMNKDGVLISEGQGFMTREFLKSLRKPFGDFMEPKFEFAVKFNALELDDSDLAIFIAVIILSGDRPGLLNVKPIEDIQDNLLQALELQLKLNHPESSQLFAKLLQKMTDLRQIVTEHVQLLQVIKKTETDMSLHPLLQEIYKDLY
T1 sequence (Q9Y618 whole entry): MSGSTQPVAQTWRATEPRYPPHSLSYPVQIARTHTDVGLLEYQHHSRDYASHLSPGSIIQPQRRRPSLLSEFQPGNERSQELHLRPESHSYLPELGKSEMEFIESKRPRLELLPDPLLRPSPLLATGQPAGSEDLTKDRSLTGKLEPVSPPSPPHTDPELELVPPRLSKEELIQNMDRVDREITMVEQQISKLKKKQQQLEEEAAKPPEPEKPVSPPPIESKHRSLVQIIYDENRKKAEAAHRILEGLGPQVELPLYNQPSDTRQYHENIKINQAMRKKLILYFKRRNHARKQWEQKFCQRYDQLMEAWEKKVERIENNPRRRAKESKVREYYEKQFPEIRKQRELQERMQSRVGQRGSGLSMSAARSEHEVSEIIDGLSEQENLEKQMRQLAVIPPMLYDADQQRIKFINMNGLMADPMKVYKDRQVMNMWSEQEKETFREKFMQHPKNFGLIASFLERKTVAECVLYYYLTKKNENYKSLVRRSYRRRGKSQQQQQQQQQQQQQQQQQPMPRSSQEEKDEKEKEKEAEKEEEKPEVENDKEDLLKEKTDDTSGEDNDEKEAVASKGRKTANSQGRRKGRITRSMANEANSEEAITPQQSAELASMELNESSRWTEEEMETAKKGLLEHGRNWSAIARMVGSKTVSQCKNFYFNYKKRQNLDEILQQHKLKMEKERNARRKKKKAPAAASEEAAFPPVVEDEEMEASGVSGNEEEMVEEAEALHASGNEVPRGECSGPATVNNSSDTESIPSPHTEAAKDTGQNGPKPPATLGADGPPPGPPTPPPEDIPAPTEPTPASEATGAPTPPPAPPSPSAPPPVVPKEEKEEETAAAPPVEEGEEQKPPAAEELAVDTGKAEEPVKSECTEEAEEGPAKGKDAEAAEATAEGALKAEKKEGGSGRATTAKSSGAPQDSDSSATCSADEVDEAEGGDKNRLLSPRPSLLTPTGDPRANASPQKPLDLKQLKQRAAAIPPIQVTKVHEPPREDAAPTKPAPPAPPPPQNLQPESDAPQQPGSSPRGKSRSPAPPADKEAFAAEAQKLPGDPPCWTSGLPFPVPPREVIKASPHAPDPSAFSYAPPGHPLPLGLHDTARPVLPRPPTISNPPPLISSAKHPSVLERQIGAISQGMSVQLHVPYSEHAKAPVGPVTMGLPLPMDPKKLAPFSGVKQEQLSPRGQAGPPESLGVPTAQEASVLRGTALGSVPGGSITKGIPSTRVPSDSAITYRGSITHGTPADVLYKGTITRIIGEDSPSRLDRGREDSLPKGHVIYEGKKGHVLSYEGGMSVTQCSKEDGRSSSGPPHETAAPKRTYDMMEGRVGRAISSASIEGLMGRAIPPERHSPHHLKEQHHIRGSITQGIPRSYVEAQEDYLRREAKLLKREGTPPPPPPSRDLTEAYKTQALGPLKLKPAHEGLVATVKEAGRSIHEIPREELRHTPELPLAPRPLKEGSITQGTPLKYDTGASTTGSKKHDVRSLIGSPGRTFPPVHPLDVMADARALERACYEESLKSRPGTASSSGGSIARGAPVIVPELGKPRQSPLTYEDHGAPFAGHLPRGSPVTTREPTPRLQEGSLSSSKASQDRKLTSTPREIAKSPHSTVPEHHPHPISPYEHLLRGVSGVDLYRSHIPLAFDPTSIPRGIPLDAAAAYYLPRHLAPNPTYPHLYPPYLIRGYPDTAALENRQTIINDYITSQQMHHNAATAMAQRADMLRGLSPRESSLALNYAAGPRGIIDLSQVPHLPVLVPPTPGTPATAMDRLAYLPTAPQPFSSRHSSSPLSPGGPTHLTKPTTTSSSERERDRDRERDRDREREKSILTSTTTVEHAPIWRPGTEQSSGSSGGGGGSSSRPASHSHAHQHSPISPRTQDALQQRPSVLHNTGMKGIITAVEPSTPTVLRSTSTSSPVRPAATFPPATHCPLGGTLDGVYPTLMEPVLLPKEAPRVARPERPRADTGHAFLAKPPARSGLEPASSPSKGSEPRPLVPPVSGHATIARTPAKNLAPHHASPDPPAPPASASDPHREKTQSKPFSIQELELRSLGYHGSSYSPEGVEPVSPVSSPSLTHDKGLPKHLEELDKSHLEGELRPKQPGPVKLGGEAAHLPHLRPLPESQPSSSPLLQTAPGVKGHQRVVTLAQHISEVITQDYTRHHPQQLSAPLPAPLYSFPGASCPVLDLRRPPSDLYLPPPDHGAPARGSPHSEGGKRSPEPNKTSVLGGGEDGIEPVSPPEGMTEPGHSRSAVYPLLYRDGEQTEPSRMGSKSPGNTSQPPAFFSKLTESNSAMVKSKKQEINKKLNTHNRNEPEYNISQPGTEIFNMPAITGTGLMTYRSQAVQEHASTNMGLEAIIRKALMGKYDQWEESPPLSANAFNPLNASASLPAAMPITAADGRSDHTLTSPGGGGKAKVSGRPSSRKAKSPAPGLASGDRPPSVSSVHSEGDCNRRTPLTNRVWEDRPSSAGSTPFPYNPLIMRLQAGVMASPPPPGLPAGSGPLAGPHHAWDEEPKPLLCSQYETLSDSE

[6] = inhibitors of firefly luciferase expression or activity, dose response, H4 neuroglioma cells, luminescence (AID 1990); assay type: functional, cell-based
[7] = Cytotoxicity screening for potential Inhibitors of Bacterial Capsule Biogenesis. [Related pubchem assays (depositor defined):AID488970]; assay type: functional
[8] = molecular target: T2, Photoreceptor-specific nuclear receptor (Homo sapiens, UniProt Q9Y5X4); assay type: functional;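 also: potency for compounds that break the NR2E3 corepressor complex and count as activators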
T2 sequence (Q9Y5X4 whole entry): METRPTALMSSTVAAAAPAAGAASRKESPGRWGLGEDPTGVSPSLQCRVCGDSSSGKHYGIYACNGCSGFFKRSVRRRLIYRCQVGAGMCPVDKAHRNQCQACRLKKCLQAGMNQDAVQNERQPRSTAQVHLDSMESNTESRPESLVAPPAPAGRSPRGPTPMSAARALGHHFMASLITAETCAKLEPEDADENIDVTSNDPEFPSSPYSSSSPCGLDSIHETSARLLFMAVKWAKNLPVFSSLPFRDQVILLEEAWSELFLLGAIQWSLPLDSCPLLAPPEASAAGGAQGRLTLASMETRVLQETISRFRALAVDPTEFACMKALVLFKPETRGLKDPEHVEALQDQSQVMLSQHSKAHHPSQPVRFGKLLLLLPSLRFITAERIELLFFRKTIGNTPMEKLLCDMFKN

Genome polyprotein [9] = molecular target: Genome polyprotein (Hepatitis C virus, UniProt Q2Q167); assay: HCV core protein dimerization inhibitors, dose response, biochemical, TR-FRET (AID 2159); design: species or system Hepacivirus hominis;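 also: blocks dimerization of HCV core protein measured by TR-FRET between tagged core106 pairs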
Chain of Genome polyprotein (Hepatitis C virus, UniProt Q2Q167) (Q2Q167 whole entry): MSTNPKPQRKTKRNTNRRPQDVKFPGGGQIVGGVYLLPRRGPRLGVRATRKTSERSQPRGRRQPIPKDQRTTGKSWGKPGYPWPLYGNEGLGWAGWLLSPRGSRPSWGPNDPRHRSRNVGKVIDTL

[10] = molecular target: Histone-lysine N-methyltransferase NSD2 (Homo sapiens, UniProt O96028); assay type: biochemical
[11] = molecular target: 5-hydroxytryptamine receptor 1A (Homo sapiens, UniProt P08908); assay type: functional
Chain of 5-hydroxytryptamine receptor 1A (P08908 whole entry): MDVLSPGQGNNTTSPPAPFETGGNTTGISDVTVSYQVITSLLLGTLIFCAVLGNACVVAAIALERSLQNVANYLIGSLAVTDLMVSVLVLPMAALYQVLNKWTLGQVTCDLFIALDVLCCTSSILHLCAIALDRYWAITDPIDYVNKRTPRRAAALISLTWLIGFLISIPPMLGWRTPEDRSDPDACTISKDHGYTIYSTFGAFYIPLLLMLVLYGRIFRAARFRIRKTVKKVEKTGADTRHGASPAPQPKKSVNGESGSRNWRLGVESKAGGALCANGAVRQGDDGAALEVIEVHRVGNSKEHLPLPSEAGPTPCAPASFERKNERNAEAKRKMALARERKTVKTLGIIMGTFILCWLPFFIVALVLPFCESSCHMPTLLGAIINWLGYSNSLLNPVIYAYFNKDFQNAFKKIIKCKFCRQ

[12] = molecular target: T2, Photoreceptor-specific nuclear receptor; assay: NR2E3 inverse agonists, dose response, biochemical, TR-FRET (AID 463256); assay type: functional
[13] = molecular target: T1, Peroxisome proliferator-activated receptor gamma/Nuclear receptor corepressor 2; assay: Counterscreen for NR2E3 inverse agonists: TR-FRET-based biochemical high throughput dose response assay to identify inverse agonists of the interaction between peroxisome proliferator-activated receptor gamma (PPARg) and nuclear receptor co-repressor 2 (NCOR2).; assay type: functional
Ephrin type-A receptor 4 = Ephrin type-A receptor 4 (Mus musculus, UniProt Q03137); assay: inhibitors of EphA4 binding to KYL peptide, primary screen, biochemical, colorimetric, mouse EphA4 (AID 689); assay type: functional
[14] = molecular target: T3, Zinc finger protein mex-5 (Caenorhabditis elegans, UniProt Q9XUB2); assay: MEX-5/TCR-2 RNA interaction inhibitors, dose response, biochemical, C. elegans, fluorescence polarization (AID 1960)
T3 sequence (Q9XUB2 whole entry): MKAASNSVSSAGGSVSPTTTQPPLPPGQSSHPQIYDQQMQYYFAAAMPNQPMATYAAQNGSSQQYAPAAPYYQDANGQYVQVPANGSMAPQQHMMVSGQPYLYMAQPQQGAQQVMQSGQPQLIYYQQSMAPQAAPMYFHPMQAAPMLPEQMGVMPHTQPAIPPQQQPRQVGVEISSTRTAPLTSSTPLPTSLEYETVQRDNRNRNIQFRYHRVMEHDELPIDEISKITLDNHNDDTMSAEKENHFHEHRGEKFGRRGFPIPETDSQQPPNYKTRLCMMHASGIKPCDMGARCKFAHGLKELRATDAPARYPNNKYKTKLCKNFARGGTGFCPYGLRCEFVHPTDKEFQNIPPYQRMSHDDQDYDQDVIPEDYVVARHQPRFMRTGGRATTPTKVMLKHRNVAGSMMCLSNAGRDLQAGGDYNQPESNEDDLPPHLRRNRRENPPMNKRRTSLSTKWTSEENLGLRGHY

Bcl-2-like protein 10 = molecular target: T4, Bcl-2-like protein 10 (Homo sapiens, UniProt Q9HD36); assay: displacers of TR3 peptide from Bcl-B, primary screen, selectivity assay for Bfl-1 inhibitor project, biochemical, fluorescence polarization, FITC-TR3 peptide (AID 748);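 also: fluorescence polarization from a fluorescein-labelled TR3 peptide binding purified Bcl-B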
T4 sequence (Q9HD36 whole entry): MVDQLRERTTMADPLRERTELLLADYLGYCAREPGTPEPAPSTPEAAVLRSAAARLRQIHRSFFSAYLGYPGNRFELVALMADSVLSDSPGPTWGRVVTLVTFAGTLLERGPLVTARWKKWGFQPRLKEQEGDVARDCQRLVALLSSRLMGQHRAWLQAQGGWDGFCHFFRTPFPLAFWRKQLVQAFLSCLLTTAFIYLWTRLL

Protein RecA = molecular target: T5, Protein RecA (Mycobacterium tuberculosis, UniProt P9WHJ3); assay: Fluorescence Cell-Free Homogeneous Dose Retest to Identify Inhibitors of RecA-Intein Splicing Activity. [Related pubchem assays (depositor defined):AID2097, AID2223, AID489010, AID492950]; assay type: functional
T5 sequence (P9WHJ3 whole entry): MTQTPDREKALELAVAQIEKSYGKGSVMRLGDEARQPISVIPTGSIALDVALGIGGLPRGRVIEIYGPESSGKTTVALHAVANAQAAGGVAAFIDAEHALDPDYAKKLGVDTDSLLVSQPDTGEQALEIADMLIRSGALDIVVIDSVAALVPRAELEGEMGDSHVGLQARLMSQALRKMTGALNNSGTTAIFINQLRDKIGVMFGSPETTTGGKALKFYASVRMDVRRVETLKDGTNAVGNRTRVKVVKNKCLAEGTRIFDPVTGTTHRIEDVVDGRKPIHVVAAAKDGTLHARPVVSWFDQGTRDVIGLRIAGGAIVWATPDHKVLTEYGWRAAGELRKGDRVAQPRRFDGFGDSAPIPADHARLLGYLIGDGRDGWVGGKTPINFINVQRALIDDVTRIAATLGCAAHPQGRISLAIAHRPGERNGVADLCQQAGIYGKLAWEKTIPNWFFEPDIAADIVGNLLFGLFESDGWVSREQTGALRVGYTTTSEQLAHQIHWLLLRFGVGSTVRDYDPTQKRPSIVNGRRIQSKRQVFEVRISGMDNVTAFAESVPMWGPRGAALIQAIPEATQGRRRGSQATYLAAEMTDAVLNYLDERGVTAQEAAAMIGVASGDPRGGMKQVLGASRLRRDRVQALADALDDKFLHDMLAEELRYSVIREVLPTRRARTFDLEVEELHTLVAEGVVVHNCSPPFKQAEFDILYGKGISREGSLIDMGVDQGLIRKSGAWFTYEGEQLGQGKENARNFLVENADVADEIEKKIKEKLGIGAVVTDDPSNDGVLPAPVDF

[15] = molecular target: Tyrosyl-DNA phosphodiesterase 2 (Homo sapiens, UniProt O95551); assay: human TDP2 enzyme inhibitors, dose response, biochemical, epi absorbance, IC50 (AID 743297)
Chain of Tyrosyl-DNA phosphodiesterase 2 (O95551 whole entry, the tested form may be a part): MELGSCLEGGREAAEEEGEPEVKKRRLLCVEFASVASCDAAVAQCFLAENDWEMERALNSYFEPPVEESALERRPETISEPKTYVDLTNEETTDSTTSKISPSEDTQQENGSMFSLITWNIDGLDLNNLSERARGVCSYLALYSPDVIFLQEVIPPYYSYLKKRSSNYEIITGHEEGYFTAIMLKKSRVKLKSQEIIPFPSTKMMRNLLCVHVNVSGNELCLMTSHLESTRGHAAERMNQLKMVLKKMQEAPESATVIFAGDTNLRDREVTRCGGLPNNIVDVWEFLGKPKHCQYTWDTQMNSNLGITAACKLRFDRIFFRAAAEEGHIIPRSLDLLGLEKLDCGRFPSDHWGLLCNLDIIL

Fibrinogen beta chain [16] = molecular target: T6, Fibrinogen beta chain (Homo sapiens, UniProt P02675); assay: Fluorescence polarization-based biochemical high throughput dose response assay to identify inhibitors that disrupt the binding of a cyclic peptide (Tn7) to the fibrin proteolytic product D-Dimer and fragment E complex [DD(E )].
T6 sequence (P02675 whole entry): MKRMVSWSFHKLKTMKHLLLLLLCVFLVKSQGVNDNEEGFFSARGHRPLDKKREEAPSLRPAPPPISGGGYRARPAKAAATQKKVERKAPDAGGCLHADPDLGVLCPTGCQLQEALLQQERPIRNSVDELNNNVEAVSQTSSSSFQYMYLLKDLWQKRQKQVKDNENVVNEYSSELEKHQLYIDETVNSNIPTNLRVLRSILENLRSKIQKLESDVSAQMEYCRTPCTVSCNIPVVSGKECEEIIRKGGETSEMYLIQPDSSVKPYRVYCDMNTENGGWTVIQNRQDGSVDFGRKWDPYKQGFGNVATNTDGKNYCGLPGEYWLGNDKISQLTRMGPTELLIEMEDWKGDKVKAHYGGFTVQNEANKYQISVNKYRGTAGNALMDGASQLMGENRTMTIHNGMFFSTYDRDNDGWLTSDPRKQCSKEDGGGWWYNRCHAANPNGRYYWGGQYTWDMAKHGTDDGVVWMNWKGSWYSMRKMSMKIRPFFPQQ

Genome polyprotein [17] = molecular target: Genome polyprotein (dengue virus type 2, UniProt P29990); assay: Dengue-2 NS5 methyltransferase inhibitors, primary screen, biochemical, confirmation dose response (AID 588689); assay type: functional
[18] = Artemis endonuclease inhibitor potency, dose response, biochemical, fluorescence intensity (AID 720701); assay type: functional;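 also: Artemis endonuclease enzyme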
Fibrinogen beta chain [19] = molecular target: T6, Fibrinogen beta chain; assay: Fluorescence polarization-based biochemical high throughput dose response assay to identify inhibitors that disrupt the binding of a cyclic peptide (Tn6) to the fibrin proteolytic product D-Dimer and fragment E complex [DD(E )].
14-3-3 protein gamma = 14-3-3 protein gamma (Homo sapiens, UniProt P61981); assay: modulators of 14-3-3 gamma client binding – dose response (AID 711); assay type: functional
Chain of 14-3-3 protein gamma (P61981 whole entry, the tested form may be a part): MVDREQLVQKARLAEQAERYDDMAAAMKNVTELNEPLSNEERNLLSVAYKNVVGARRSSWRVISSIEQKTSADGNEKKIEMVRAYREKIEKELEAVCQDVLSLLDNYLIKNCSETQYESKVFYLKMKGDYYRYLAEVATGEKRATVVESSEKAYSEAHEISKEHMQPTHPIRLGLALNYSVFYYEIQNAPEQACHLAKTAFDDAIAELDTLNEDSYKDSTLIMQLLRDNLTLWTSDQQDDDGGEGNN

[20] = molecular target: T7, RNA-binding protein pos-1 (Caenorhabditis elegans, UniProt G5EF15); assay: inhibitors of POS-1/mex-3 RNA binding, dose response, biochemical, fluorescence polarization (AID 1964);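 also: purified POS-1 fused to maltose binding protein made in E. coli; potency of compounds blocking POS-1 binding to fluorescent RNA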
T7 sequence (G5EF15 whole entry): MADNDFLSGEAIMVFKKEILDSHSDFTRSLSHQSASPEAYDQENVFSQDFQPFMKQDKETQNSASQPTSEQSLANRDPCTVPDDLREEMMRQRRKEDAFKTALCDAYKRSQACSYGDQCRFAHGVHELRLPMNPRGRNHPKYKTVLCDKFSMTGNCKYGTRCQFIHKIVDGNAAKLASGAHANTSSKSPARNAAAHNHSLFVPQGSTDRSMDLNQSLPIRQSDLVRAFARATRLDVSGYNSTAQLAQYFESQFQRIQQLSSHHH

[21] = molecular target: T8, Replicative DNA helicase DnaB (Mycobacterium tuberculosis, UniProt P9WMR3); assay: DnaB intein splicing inhibitors, dose response, biochemical, cell-free fluorescence (AID 449749); assay type: functional
T8 sequence (P9WMR3 whole entry): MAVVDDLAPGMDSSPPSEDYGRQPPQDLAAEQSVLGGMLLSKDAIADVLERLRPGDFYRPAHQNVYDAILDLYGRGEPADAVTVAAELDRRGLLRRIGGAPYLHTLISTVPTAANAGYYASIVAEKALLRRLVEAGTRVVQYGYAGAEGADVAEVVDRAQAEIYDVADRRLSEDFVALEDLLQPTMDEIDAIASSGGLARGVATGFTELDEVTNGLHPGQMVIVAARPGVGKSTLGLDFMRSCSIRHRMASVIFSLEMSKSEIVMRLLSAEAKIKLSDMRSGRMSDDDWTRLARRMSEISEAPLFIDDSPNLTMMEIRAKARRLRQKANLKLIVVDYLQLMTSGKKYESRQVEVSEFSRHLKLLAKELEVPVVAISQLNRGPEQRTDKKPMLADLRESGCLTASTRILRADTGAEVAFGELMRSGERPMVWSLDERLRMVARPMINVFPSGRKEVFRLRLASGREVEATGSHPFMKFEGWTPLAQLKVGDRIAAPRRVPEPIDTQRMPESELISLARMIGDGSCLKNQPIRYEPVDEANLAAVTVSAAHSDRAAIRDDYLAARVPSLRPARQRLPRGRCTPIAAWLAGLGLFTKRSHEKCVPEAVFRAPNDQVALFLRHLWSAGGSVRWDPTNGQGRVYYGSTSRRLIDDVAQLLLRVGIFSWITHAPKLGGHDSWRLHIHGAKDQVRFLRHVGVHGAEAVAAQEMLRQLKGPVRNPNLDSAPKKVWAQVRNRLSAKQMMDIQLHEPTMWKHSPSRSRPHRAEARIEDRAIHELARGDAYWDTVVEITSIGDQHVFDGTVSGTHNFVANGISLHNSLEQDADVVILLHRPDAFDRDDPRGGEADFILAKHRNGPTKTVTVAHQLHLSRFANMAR

Danio rerio = assay: In Vivo Angiogenesis Dose-Response Confirmation. [Related pubchem assays: 732 (Assay preceding this confirmatory assay.)]; assay type: functional, organism-based

For `CCN(CC)c1ccc2c(-c3ccc(S(=O)(=O)O)cc3S(=O)(=O)[O-])c3ccc(=[N+](CC)CC)cc-3oc2c1`, the IC50 (Beta-lactamase [1]) was > 59.6 µM (inactive), the EC50 [2] was 9.58 µM (active) and the IC50 (Beta-lactamase [3]) was > 59.6 µM (inactive). For the same molecule, the EC50 [4] was 11.4 µM (active), the IC50 [5] was 1.02 µM (active) and the EC50 [6] was 11.7 µM (active). For the same molecule, the CC50 [7] was 18.4 µM (active), the IC50 [8] was > 39.8 µM (not active) and the IC50 (Genome polyprotein [9]) was > 49.8 µM (not active). For the same molecule, the AC50 [10] was > 20 µM (inactive).
In the case of `Cc1cccc(NC(=O)C2CCCN(C(=O)Nc3ccccc3)C2)c1C` (stereo unspecified), the EC50 [11] is reported as > 50 µM (not active).
For `Cc1ccc(-c2cc(C(=O)NCc3cnn(C)c3)c3cc(Br)ccc3n2)cc1`, the IC50 [12] was 2.99 µM (active) and the IC50 [13] was 1.56 µM (active).
For `CCN(CCNC(=O)C1CCCN(S(=O)(=O)CC)C1)c1ccccc1` (stereo unspecified), the IC50 (Ephrin type-A receptor 4) was > 100 µM (not active).
With `COc1cc(NCCCC(C)N)c2ncccc2c1` (stereo unspecified) the EC50 [14] was 34.3 µM (active), the IC50 (Bcl-2-like protein 10) was 8.47 µM (active) and the EC50 (Protein RecA) was 0.42 µM (active). For the same molecule, the IC50 [15] was 49.2 µM (inactive), the IC50 (Fibrinogen beta chain [16]) was > 83.3 µM (inactive) and the IC50 (Genome polyprotein [17]) was > 100 µM (active). For the same molecule, the IC50 [18] was > 20 µM (inactive), the IC50 (Fibrinogen beta chain [19]) was 54.4 µM (inactive) and the IC50 (14-3-3 protein gamma) was > 50 µM (not active). The EC50 [20] was 42.5 µM (active) and the AC50 [21] was 4.78 µM (active).
With `COc1cc2ncnc(Nc3cccc(Cl)c3)c2cc1OC` [TYRPHOSTIN AG-1478] the IC50 (Danio rerio) was 12.7 µM (not active).
